Laboratory results: patent US10160867B2, “Benzoxaborole-containing coating resistant to cellulose-supportable fungus” (THE PENN STATE RESEARCH FOUNDATION, priority 2015, dated 2018)
≈ marks a conversion by molar mass, not a printed value.

What was measured:
[1] = commercially available fungicidal agents; cited from earlier work
[2] = test system: Aspergillus flavus; assay: 3 day MIC, broth microdilution in 25% PDB; format: cell-based; details: 72 h
Procedure, shortened: (§1)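 Spores counted by hemocytometer, diluted to 0.4-1×10^5 CFU/mL final; DMSO 0.5-2% v/v final; ~25° C; growth read 48 h and 72 h; modified CLSI M38-A2 protocol.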

[3] = test system: Aureobasidium pullulans; assay: 3 day MIC, broth microdilution in 25% PDB; format: cell-based; details: 72 h
Procedure, shortened: as §1

[4] = test system: Rhizopus spp.; assay: 3 day MIC, broth microdilution in 25% PDB; format: cell-based; details: 72 h
Procedure, shortened: as §1

[5] = test system: Aspergillus niger; assay: 3 day MIC, broth microdilution in 25% PDB; format: cell-based; details: 72 h
Procedure, shortened: as §1

[6] = test system: Fusarium oxysparum ST-33; assay: 3 day MIC, broth microdilution in 25% PDB; format: cell-based; details: ST33, 72 h
Procedure, shortened: as §1

[7] = test system: Mucor spp.; assay: 3 day MIC, broth microdilution in 25% PDB; format: cell-based; details: 72 h
Procedure, shortened: as §1

[8] = test system: Stachybotrys chartarum; assay: Fungus resistance test after painting over fungal growth (defacement rating); format: cell-based; details: painted over fungal growth
From the text: (§2) In this series of experiments, fungal growth was allowed to cover a painted surface (surface containing 2 coats of the unaltered paint) to a defacement rating of 3-5, forming a ‘contaminated surface’. […] The paint application was extended approximately 1-2 cm beyond the edge of the disc onto the NSA medium. Each formulation used a separate brush to avoid cross contamination. The re-painted discs were placed back into the humid environment with elevated temperature to encourage fungal growth.
(§3) This test was used to evaluate the ability of paint films containing antifungal additives to prevent the re-emergence of fungal growth after painting over existing growth.
(§4) Olympic® Home interior flat latex paint (PPG Industries, Pittsburgh, Pa.) and Valspar® QuikHide White flat interior paint (Valspar Corporation, Minneapolis, Minn.) were used for the experiments in this study unless specified. Stock solutions of the antifungal additives of interest were prepared in reagent grade dimethyl sulfoxide (DMSO; Alfa Aesar, Ward Hill, Mass.). Additives were spiked (by adding appropriate amounts of the antifungal stock solutions) into the liquid paint at specified concentrations. Samples of additive-spiked paint were vigorously mixed with a vortex mixer for at least one minute to insure uniform dispersion of the additive in the paint. […] Studies that used other brands of paint followed the same protocol as described for those using the Olympic® Home interior flat latex paint.
(§5) Test surfaces were prepared in triplicate. In most cases, the tested conditions were repeated on a different date, again in triplicate. […] Two coats of paint were applied with a polyester brush to completely cover both faces of the filter paper disc, allowing at least four hours drying time between coats.
(§6) Nutrient-Salts Agar (NSA) media was prepared according to ASTM method G21-13 in 100×15 mm sterile polystyrene petri dishes (VWR® Radnor, Pa.) with a solidified agar layer from 3 to 6 mm (⅛ to ¼ in.) in depth. The agar was allowed to solidify for at least 24 hours before being used. The painted test filter paper discs were placed in the center of the agar plates in a biosafety hood while wearing clean nitrile gloves.
(§7) The paint coatings were evaluated against three representative fungi: Stachybotrys chartarum, Penicillium chrysogenum, and Alternaria alternata. […] Fungal isolates of Alternaria alternata and Penicillium chrysogenum were obtained from the Plant Pathology and Environmental Microbiology Department at Penn State University.
(§8) A spore suspension of each of these fungi was prepared by pouring a 20-mL portion of autoclaved deionized water containing 0.01% Tween® 20 onto a subculture of each fungal species. Spores were counted with the use of a hemocytometer (Hausser Scientific, Horsham, Pa.) under a microscope. Spore suspensions of Stachybotrys chartarum and Penicillium chrysogenum were diluted to 1×10^6 spores/mL with autoclaved deionized water. Spore suspensions of Alternaria alternata were used “as is” in the range of 200,000 to 400,000 spores/mL.
(§9) Painted test surfaces were inoculated with a spray bottle or with a cotton-tipped applicator. To inoculate the sample with a spray bottle, the spore suspension was sprayed twice on the painted test discs with a spray bottle that delivered approximately 0.14 g of fluid per spray. To inoculate the sample with a cotton-tipped applicator, an autoclaved cotton-tipped applicator was submerged in approximately 400 μL of the inoculum solution and applied evenly over the surface of the painted test surface twice.

[9] = test system: Penicillium chrysogenum; assay: as above; format: cell-based; details: painted over fungal growth, +200 μg/mL in Valspar QuikHide paint
From the text: as §2, §3, §4, §5, §6, §7, §8, §9

[10] = test system: Alternaria alternata; assay: as above; format: cell-based; details: painted over fungal growth
From the text: as §2, §3, §4, §5, §6, §7, §8, §9

[11] = test system: Cladosporium cladosporioides; assay: 3 day MIC, broth microdilution in 25% PDB; format: cell-based; details: 72 h
Procedure, shortened: as §1

[12] = +100 μg/mL in Olympic Home paint, 7 days
[13] = +100 μg/mL in Olympic Home paint, 14 days
[14] = +100 μg/mL in Olympic Home paint, 21 days
[15] = +1000 μg/mL in Olympic Home paint, 7 days
[16] = +1000 μg/mL in Olympic Home paint, 14 days
[17] = +1000 μg/mL in Olympic Home paint, 21 days
[18] = +200 μg/mL in Olympic Home paint, 7 days
[19] = +200 μg/mL in Olympic Home paint, 14 days
[20] = +200 μg/mL in Olympic Home paint, 21 days

Compound	Solubility in water [1]	MIC [2]	MIC [3]	MIC [4]	MIC [5]	MIC [6]	MIC [7]	Average defacement rating ± standard deviation [8, 12]	Average defacement rating ± standard deviation [8, 13]	Average defacement rating ± standard deviation [8, 14]	Average defacement rating ± standard deviation ([9]; 7 days)	Average defacement rating ± standard deviation ([9]; 14 days)	Average defacement rating ± standard deviation ([9]; 21 days)	Average defacement rating ± standard deviation [10, 12]	Average defacement rating ± standard deviation [10, 13]	Average defacement rating ± standard deviation [10, 14]	MIC [11]	further results
O=C1C2CC=CCC2C(=O)N1SC(Cl)(Cl)Cl (stereo not drawn) [Captan]	3.3 mg/L (≈ 11 µM)	25 µg/mL (≈ 83.2 µM)	0.8 µg/mL (≈ 2.66 µM)	12.5 µg/mL (≈ 41.6 µM)	16 µg/mL (≈ 53.2 µM)	2 µg/mL (≈ 6.65 µM)	3.1 µg/mL (≈ 10.3 µM)	0.0 ± 0.0 (6)	0.0 ± 0.0 (6)	0.0 ± 0.0 (6)	0.0 ± 0.0 (9)	0.0 ± 0.0 (9)	0.0 ± 0.0 (9)	3.6 ± 3.9 (9)	2.5 ± 4.0 (9)	2.4 ± 3.8 (9)		
N#Cc1c(Cl)c(Cl)c(Cl)c(C#N)c1Cl [Chlorothalonil, chlorothalonil]	<100 mg/L	0.2 µg/mL (≈ 0.752 µM)		0.8 µg/mL (≈ 3.01 µM)	0.4 µg/mL (≈ 1.5 µM)		0.8 µg/mL (≈ 3.01 µM)	2.2 ± 2.1 (9)	2.0 ± 1.7 (9)	2.0 ± 1.7 (9)	0.0 ± 0.0 (9)	0.0 ± 0.0 (9)	0.0 ± 0.0 (9)					Average defacement rating ± standard deviation [10, 15]: 0.5 ± 1.4 (9); Average defacement rating ± standard deviation [10, 16]: 0.2 ± 0.5 (9); Average defacement rating ± standard deviation [10, 17]: 0.1 ± 0.3 (9)
OB1OCc2cc(Cl)ccc21 [Compound B8, 5-chloro-1,3-dihydro-2,1-benzoxaborol-1-ol]		1 µg/mL (≈ 5.94 µM)	0.125 µg/mL (≈ 0.742 µM)	4 µg/mL (≈ 23.8 µM)	0.25 µg/mL (≈ 1.48 µM)	0.25 µg/mL (≈ 1.48 µM)	0.5 µg/mL (≈ 2.97 µM)	7.0 ± 1.9 (9)	6.4 ± 2.6 (9)		2.3 ± 0.6 (9)	0.0 ± 0.0 (9)	0.0 ± 0.0 (9)		3.4 ± 2.9 (9)	3.0 ± 2.8 (9)	0.1 µg/mL (≈ 0.594 µM)	Average defacement rating ± standard deviation [10, 18]: 9.3 ± 1.2 (3); Average defacement rating ± standard deviation [10, 19]: 7.3 ± 2.9 (3); Average defacement rating ± standard deviation [10, 20]: 3.0 ± 0.9 (3)
OB1OCc2cc(F)ccc21 [Compound B9, 5-Fluoro-1,3-dihydro-2,1-benzoxaborol-1-ol]		1 µg/mL (≈ 6.58 µM)	0.125 µg/mL (≈ 0.823 µM)	0.5 µg/mL (≈ 3.29 µM)	0.25 µg/mL (≈ 1.65 µM)	0.25 µg/mL (≈ 1.65 µM)	0.25 µg/mL (≈ 1.65 µM)	7.2 ± 2.6 (9)	1.3 ± 3.0 (9)	1.0 ± 2.8 (9)	8.7 ± 1.0 (9)	2.6 ± 3.1 (9)	0.0 ± 0.0 (9)		5.1 ± 2.1 (12)	4.6 ± 2.2 (12)	0.1 µg/mL (≈ 0.658 µM)	Average defacement rating ± standard deviation ([8]; +10 μg/mL in Olympic Home paint, 7 days): 0.3 ± 0.6 (3); Average defacement rating ± standard deviation ([8]; +10 μg/mL in Olympic Home paint, 14 days): 0.0 ± 0.0 (3); Average defacement rating ± standard deviation ([8]; +10 μg/mL in Olympic Home paint, 21 days): 0.0 ± 0.0 (3); Average defacement rating ± standard deviation [10, 18]: 9.7 ± 0.6 (3); Average defacement rating ± standard deviation [10, 19]: 7.0 ± 4.4 (3); Average defacement rating ± standard deviation [10, 20]: 6.3 ± 5.5 (3)
CCCCNC(=O)OCC#CI [IPBC, 3-Iodo-2-propynylbutylcarbamate]	156 mg/L (≈ 555 µM)							1.2 ± 1.3 (9)	0.0 ± 0.0 (9)	0.0 ± 0.0 (9)	6.9 ± 3.8 (9)	4.8 ± 4.0 (9)	3.1 ± 3.4 (9)	5.9 ± 2.9 (9)	3.1 ± 2.4 (9)	3.0 ± 2.5 (9)		
CCCCCCCCn1sccc1=O [OIT, 2-Octyl-4-isothiazolin-3-one]								4.6 ± 3.2 (9)	3.6 ± 3.7 (9)	3.0 ± 3.7 (9)	3.6 ± 2.8 (9)	3.0 ± 3.7 (9)	2.3 ± 40.0 (9)	0.3 ± 0.5 (6)	0.0 ± 0.0 (6)	0.0 ± 0.0 (6)		
c1ccc2[nH]c(-c3cscn3)nc2c1 [Thiabendazole]	8 mg/L (≈ 39.8 µM)	12.5 µg/mL (≈ 62.1 µM)	0.4 µg/mL (≈ 1.99 µM)	400 µg/mL (≈ 1990 µM)	12.5 µg/mL (≈ 62.1 µM)	25 µg/mL (≈ 124 µM)	> 200 µg/mL	0.7 ± 1.6 (6)	0.2 ± 0.8 (6)	0.2 ± 0.8 (6)	6.7 ± 4.6 (9)	2.2 ± 4.4 (9)	2.2 ± 4.4 (9)	0.0 ± 0.0 (6)	0.0 ± 0.0 (6)	0.0 ± 0.0 (6)	0.8 µg/mL (≈ 3.98 µM)	Average defacement rating ± standard deviation [10, 15]: 7.3 ± 1.3 (10); Average defacement rating ± standard deviation [10, 16]: 3.6 ± 1.7 (10); Average defacement rating ± standard deviation [10, 17]: 2.8 ± 1.1 (10)
Oc1cc(Cl)ccc1Oc1ccc(Cl)cc1Cl [Triclosan, triclosan]	12,000 mg/L							0.7 ± 1.2 (9)	0.7 ± 1.2 (9)	0.6 ± 1.0 (9)	0.9 ± 2.7 (9)	0.0 ± 0.0 (9)	0.0 ± 0.0 (9)	3.6 ± 3.5 (9)	2.6 ± 3.7 (9)	2.0 ± 2.9 (9)		
